# Assay results published in publication PMC5712521, “Dendrogenin A drives LXR to trigger lethal autophagy in cancers” (Nature Communications, 2017).
# Tests used:
# HL60 tumors = experiment: Subcutaneous HL60 tumor xenograft; type: in vivo, mice
# Method: (§1) Exponentially growing cells were harvested, washed twice in PBS then resuspended in PBS. SKMEL-28, shSKMEL-28 clones (5 × 10^6 cells) and B16F10 (3 × 10^5) cells were injected subcutaneously (s.c.) into the flank of nude mice. HL60, KG1 and shKG1-clones (5 × 10^6) were inoculated s.c. into the flanks of NOD/SCID mice. When tumors were palpable, animals (n = 10–20 mice per group, as indicated) were randomized to receive either DDA (20 mg/kg) intraperitoneally (i.p.) or 40 mg/kg by oral gavage (p.o), once a day, or vehicle solvent for the indicated time. Animals were examined daily and body weights were measured twice a week. In all experiments, tumor volume was determined by direct measurement with a caliper and was calculated using the formula (width^2 × length)/2. At the end of experiments, mice were sacrificed and tumors were excised and divided for intra-tumoral DDA quantification, immunoblotting, or immunohistochemistry analyses. […]
# (§2) (n=16- 20 mice/group) engrafted with KG1 cells or HL60 cells were treated with DDA (20 mg/kg/day, i.p.) or solvent vehicle (control). Tumor growth was monitored over time and was analyzed for significance using repeated measures ANOVA (***P<0.001). The mean tumor volumes ± SEM are shown. e Average tumor weight at the end of the experiments in d. *P<0.5, **P<0.01, ANOVA. f Mean tumor volumes measured at the end of the experiments for HL60 and KG1 graf ted into NOD/SCID or NMRI-Fo x1 -nude mice treated with DDA (40 mg/kg/day, p.o. or 20 mg/kg/day, i.p.) or solvent vehicle (control) (n=10- 20 mice per group). Values represent the means ± S.E.M. (**P<0.01, ***P<0.001, ANOVA). g Histochemical analysis of the expression of LC3 and P62 in HL60 tumor sections isolated from NOD/SCID mice treated or not with DDA (20 mg/kg/day, i.p.). h Quantification of LC3 punctate cells in shCTRL and shLXRβ KG1 tumors. i Quantification of DDA levels in tumors 4 h after the final administration of DDA. j Box plot of TCGA RNA-seq data from patients with melanoma showing that LXRβ is the predominant LXR isoform expressed. […]
# KG1 tumors = experiment: Subcutaneous KG1 tumor xenograft; type: in vivo, mice
# Method: as §1, §2
# HL60 cells = experiment: Immunoblot densitometry; type: cell-based, human; details: 5 µM DDA, 24 h
# Method: Immunoblotting was carried out as described previously. Proteins were separated on SDS-PAGE gels, electro-transferred onto polyvinylidene difluoride membranes and incubated overnight at 4 °C with the following antibodies: anti-Atg3, anti-Atg5 (D1G9), anti-Atg7 (D12B11), anti-Beclin (D40C5), anti-caspase-3 (Cell Signaling), anti-Bcl-2 (Millipore), anti-Bax (Millipore), anti-LC3 (Sigma-Aldrich), anti-LXRα (SantaCruz), anti-LXRβ (SantaCruz), anti-Nur77 (Active motif), anti-NOR1 (R&D systems), anti-PARP (Cell Signaling), anti-Vps34 (Cell Signaling), or anti-Actin (Millipore). For visualization, an ECL plus kit (Amersham Biosciences) was used, and chemiluminescence was measured by autoradiography (Supplementary Fig. 9). Specific bands were quantified with ImageQuant software. […]
# (n=16- 20 mice/group) engrafted with KG1 cells or HL60 cells were treated with DDA (20 mg/kg/day, i.p.) or solvent vehicle (control). Tumor growth was monitored over time and was analyzed for significance using repeated measures ANOVA (***P<0.001). The mean tumor volumes ± SEM are shown. e Average tumor weight at the end of the experiments in d. *P<0.5, **P<0.01, ANOVA. f Mean tumor volumes measured at the end of the experiments for HL60 and KG1 graf ted into NOD/SCID or NMRI-Fo x1 -nude mice treated with DDA (40 mg/kg/day, p.o. or 20 mg/kg/day, i.p.) or solvent vehicle (control) (n=10- 20 mice per group). […]
smiles,measurement,setting,value
"CC(C)CCC[C@@H](C)[C@H]1CC[C@H]2[C@@H]3C[C@@H](NCCc4cnc[nH]4)[C@@]4(O)C[C@@H](O)CC[C@]4(C)[C@H]3CC[C@]12C [DDA, Dendrogenin A]",Tumor volume at the end of the experiment,"HL60 tumors; NMRI-Fox1-nude mice, DDA i.p. 20mg/kg/d (control 726±81)",203±72 mm3
same,Tumor volume at the end of the experiment,"HL60 tumors; NOD/SCID mice, DDA i.p. 20mg/kg/d (control 2348±204)",880±101 mm3
same,Tumor volume at the end of the experiment,"HL60 tumors; NOD/SCID mice, DDA p.o. 40mg/kg/d (control 2348±204)",812±66 mm3
same,Tumor volume at the end of the experiment,"KG1 tumors; NOD/SCID mice, DDA i.p. 20mg/kg/d (control 1249±137)",618±55 mm3
same,Tumor volume at the end of the experiment,"KG1 tumors; NOD/SCID mice, DDA p.o. 40mg/kg/d (control 1249±137)",400±68 mm3
same,Tumor volume at the end of the experiment,"KG1 tumors; mice, DDA i.p. 20mg/kg/d (control 1134±389)",443±62 mm3
same,"NOR1 protein, densitometry relative to untreated",HL60 cells,1.9
same,"Nur77 protein, densitometry relative to untreated",HL60 cells,1.8
